Patent US11155525B2 (Sanford Burnham Prebys Medical Discovery Institute, priority 2015, dated 2021)

These compounds were tested against T1, human apelin receptor (Homo sapiens, UniProt P35414) (assay: Measurement of apelin receptor agonist activity (cell-based assay determining the amount of intracellular cAMP)). Conditions: CHO cells stably expressing the human apelin receptor, Forskolin 10 μM, 30 minutes, 100% efficacy = [Pyr1]-apelin-13 0.300 μM, concentration giving 50% efficacy.
T1 construct: host or cells: CHO cells
T1 sequence (P35414 1-380): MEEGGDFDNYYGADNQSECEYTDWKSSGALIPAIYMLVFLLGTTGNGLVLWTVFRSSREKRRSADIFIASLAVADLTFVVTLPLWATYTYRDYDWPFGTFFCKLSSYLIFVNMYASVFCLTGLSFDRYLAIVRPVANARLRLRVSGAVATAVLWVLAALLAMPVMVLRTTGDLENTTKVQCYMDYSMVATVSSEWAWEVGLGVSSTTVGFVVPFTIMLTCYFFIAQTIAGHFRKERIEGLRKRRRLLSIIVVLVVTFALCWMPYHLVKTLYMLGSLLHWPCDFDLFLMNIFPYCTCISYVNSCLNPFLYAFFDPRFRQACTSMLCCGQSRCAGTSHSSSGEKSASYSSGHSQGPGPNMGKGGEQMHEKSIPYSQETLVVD
In short: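 CHO cells stably expressing the receptor were treated for 30 min with compound ([…], 3-fold, 11 points; 0.3% DMSO) together with 10 μM forskolin. cAMP was measured by chemiluminescent lysate assay. Efficacy was scaled from forskolin alone (0%) to 0.300 μM [Pyr1]-apelin-13 plus forskolin (100%), and dose-response curves were fitted.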

Structure (SMILES) | EC50
COC(=O)c1ccc(-c2nnc(-c3ccc(C)o3)n2-c2c(OC)cccc2OC)cc1 [Example 47, Methyl 4-[4-(2,6-dimethoxyphenyl)-5-(5-methylfuran-2-yl)-4H-1,2,4-triazol-3-yl]benzoate] | 419 nM
COc1cccc(OC)c1-n1c(SCc2n[nH]c(=O)[nH]2)nnc1-c1ccc(C)o1 [Example 100, 5-({[4-(2,6-Dimethoxyphenyl)-5-(5-methylfuran-2-yl)-4H-1,2,4-triazol-3-yl]sulfanyl}methyl)-2,4-dihydro-3H-1,2,4-triazol-3-one] | 957 nM
COc1cccc(OC)c1-n1c(SCc2ccc(C(N)=O)cc2)nnc1-c1ccc(C)o1 [Example 105, 4-({[4-(2,6-Dimethoxyphenyl)-5-(5-methylfuran-2-yl)-4H-1,2,4-triazol-3-yl]sulfanyl}methyl)benzamide] | 1200 nM
Cc1ccc(-c2nnc(SCC(=O)O)n2-c2c(Cl)cccc2Cl)o1 [Example 32, {[4-(2,6-Dichlorophenyl)-5-(5-methylfuran-2-yl)-4H-1,2,4-triazol-3-yl]sulfanyl}acetic acid] | 3980 nM
COc1cccc(OC)c1-n1c(SCc2cc(=O)[nH][nH]2)nnc1-c1ccc(C)o1 [Example 104, 5-({[4-(2,6-Dimethoxyphenyl)-5-(5-methylfuran-2-yl)-4H-1,2,4-triazol-3-yl]sulfanyl}methyl)-1,2-dihydro-3H-pyrazol-3-one] | 48 nM
COc1cccc(OC)c1-n1c(/C=C/C(=O)N(C)C)nnc1-c1ccc(C)o1 [Example 21, (2E)-3-[4-(2,6-Dimethoxyphenyl)-5-(5-methylfuran-2-yl)-4H-1,2,4-triazol-3-yl]-N,N-dimethylprop-2-enamide] | 539 nM

Further compounds by falling EC50, results first:

EC50 | Structure (SMILES)
1210 nM | COc1cccc(OC)c1-n1c(-c2ccccc2)nnc1-c1ccc(C)o1 [Example 57, 4-(2,6-Dimethoxyphenyl)-3-(5-methylfuran-2-yl)-5-phenyl-4H-1,2,4-triazole]
774 nM | COc1cccc(OC)c1-n1c(COCC(=O)O)nnc1-c1ccc(C)o1 [Example 67, {[4-(2,6-Dimethoxyphenyl)-5-(5-methylfuran-2-yl)-4H-1,2,4-triazol-3-yl]methoxy}acetic acid]
557 nM | COC(=O)c1ccccc1CSc1nnc(-c2ccc(C)o2)n1-c1c(OC)cccc1OC [Example 77, Methyl 2-({[4-(2,6-dimethoxyphenyl)-5-(5-methylfuran-2-yl)-4H-1,2,4-triazol-3-yl]sulfanyl}methyl)benzoate]
271 nM | COc1cccc(OC)c1-n1c(/C=C/C(C)O)nnc1-c1ccc(C)o1 (centres unmarked) [Example 23, (3E)-4-[4-(2,6-Dimethoxyphenyl)-5-(5-methylfuran-2-yl)-4H-1,2,4-triazol-3-yl]but-3-en-2-ol]
108 nM | COc1cccc(OC)c1-n1c(SC(C)(C)C(=O)O)nnc1-c1ccc(C)o1 [Example 36, 2-{[4-(2,6-Dimethoxyphenyl)-5-(5-methylfuran-2-yl)-4H-1,2,4-triazol-3-yl]sulfanyl}-2-methylpropanoic acid]
